According to paper PMC11480993, “Combining Data-Driven and Structure-Based Approaches in Designing Dual PARP1-BRD4 Inhibitors for Breast Cancer Treatment” (Journal of Chemical Information and Modeling, 2024):

Tests used:
BRD1 = BRD1 (Homo sapiens, UniProt O95696); test: BRD TR-FRET assay, BRD1; type: binding
Description: (§1) The assay was performed by TR-FRET technology using a BRD and its corresponding ligand (BET). The TR-FRET signal from the assay is correlated with the amount of ligand binding to the bromodomain. All of the binding reactions were conducted at room temperature. The 20 μL reaction mixture in Assay Buffer contains either bromodomains, BET Ligand, and the indicated amount of inhibitor. For the negative control (blank), 5 μL of the assay buffer was added instead of the BET ligand. The reaction mixture was incubated for 120 min. After the incubation with the ligand, the TR-FRET signal was measured using a Tecan Infinite M1000 plate reader.

BRD2 = BRD2 (Homo sapiens, UniProt P25440); test: BRD TR-FRET assay, BRD2; type: binding
Sequence of BRD2 (P25440 whole entry): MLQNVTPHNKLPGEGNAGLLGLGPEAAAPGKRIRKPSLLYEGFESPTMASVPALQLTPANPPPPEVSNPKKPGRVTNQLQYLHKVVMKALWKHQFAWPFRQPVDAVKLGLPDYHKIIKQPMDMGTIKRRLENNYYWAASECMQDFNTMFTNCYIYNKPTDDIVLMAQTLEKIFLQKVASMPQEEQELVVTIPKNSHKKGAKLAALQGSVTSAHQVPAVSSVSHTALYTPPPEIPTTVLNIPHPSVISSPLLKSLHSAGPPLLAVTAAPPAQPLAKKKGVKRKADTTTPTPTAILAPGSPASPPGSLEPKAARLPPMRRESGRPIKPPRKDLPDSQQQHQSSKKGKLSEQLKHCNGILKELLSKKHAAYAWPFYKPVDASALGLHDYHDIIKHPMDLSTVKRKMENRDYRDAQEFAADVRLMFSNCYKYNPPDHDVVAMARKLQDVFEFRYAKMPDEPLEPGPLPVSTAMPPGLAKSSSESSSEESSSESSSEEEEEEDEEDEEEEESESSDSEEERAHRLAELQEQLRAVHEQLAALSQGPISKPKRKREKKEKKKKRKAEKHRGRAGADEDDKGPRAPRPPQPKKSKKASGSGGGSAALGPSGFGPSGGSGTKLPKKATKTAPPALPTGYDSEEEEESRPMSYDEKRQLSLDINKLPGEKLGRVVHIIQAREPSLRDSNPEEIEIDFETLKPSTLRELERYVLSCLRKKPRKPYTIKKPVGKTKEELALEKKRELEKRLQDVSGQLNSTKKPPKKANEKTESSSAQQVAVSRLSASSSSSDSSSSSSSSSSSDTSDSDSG
Description: as §1

BRD3 = BRD3 (Homo sapiens, UniProt Q15059); test: BRD TR-FRET assay, BRD3; type: binding
Sequence of BRD3 (Q15059 whole entry): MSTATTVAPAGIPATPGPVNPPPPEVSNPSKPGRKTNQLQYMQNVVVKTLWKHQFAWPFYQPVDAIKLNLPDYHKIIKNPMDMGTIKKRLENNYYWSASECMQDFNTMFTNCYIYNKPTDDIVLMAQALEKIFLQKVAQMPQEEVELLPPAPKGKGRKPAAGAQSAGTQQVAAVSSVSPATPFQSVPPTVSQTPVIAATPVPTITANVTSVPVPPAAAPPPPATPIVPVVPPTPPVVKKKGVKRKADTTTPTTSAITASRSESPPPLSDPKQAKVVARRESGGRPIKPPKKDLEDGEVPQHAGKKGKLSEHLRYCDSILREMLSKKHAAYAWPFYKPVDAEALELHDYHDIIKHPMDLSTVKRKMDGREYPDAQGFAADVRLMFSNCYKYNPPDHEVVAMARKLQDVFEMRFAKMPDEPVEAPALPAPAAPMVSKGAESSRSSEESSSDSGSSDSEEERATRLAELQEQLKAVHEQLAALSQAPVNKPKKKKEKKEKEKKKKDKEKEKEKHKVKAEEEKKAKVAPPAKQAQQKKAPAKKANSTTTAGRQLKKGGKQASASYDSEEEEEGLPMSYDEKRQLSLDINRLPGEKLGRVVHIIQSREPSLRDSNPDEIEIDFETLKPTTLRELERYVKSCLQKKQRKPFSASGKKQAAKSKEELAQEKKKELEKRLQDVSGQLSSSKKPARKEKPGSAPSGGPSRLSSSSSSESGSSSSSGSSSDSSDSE
Description: as §1

BRD4 BD1 = BRD4 BD1 (Homo sapiens, UniProt O60885); test: BRD TR-FRET assay, BRD4 BD1; type: binding
Description: as §1

MDA-MB-231 cells = test: Cell viability (MTT), MDA-MB-231; type: cell-based; details: Homo sapiens, MDA-MB-231, 96 h; 4-day treatment, wild-type BRCA
Description: MDA-MB-231, MDA-MB-436, and MCF-7 cells were seeded into 96-well plates with the number of 5 × 10^3 in each cell and allowed to incubate for 24 h. Subsequently, various concentrations of the test compounds (ranging from 100 to 0.78 μM with twice gradient dilution) were introduced. After 4 days of incubation, MTT solution was applied, and the cells were incubated for an additional 4 h. Following the removal of the supernatant, the violet crystals were dissolved in 200 μL of DMSO, and the absorbance was measured at 570 nm.

[1] = system: HEK293T (human embryonic kidney cell); test: Cytotoxicity against non-tumor cells, HEK293T; type: cell-based; details: HEK-293T, 96 h, 4-day treatment
Excerpt: To further establish HF4’s advantage, we employed a web-based in silico cytotoxicity prediction tool (https://www.way2drug.com/clc-pred/index.php), encompassing the prediction against 391 tumor and 47 normal human cell lines,[47] to predict the cytotoxicity of HF4 against nontumor cell lines. […] The absence of nontumor cell lines among the top-ranked ones indicates a limited impact on normal cell line. When threshold of ≥0.15 was applied, among 50 predictions, only a single normal cell line (HEK293) was present in the list, with a predicted probability value below 0.2. We further reinforced the safety profile of HF4 by conducting experimental safety assessments on two normal cell lines. […] In summary, we conducted both computational safety predictions and experimental evaluations on normal cell lines to strengthen the assurance of HF4’s safety profile.
Cytotoxicity of HF4 against non-tumor cells
Figure S6. Cytotoxicity of HF4 against non-tumor cells during a 4-day treatment.
(1 picture or pasted object on this page, not shown here)

MCF-7 cells = test: Colony formation assay; type: cell-based; details: seven-day exposure
Description: The cells were placed in a 6-well plate at a density of approximately 500 cells per well and allowed to incubate for 24 h. Subsequently, the cells were exposed to the specified concentrations of test compounds and a control vehicle for a duration of 7 days. Following this treatment period, the cells were fixed using a 4% formaldehyde solution, stained with crystal violet, and then imaged.

Bcl-2 = test: Western blot, Bcl-2 in MCF-7 cells; type: cell-based; details: MCF-7, 48 h, dose-dependent
Description: (§2) Following a 48 h treatment, cellular proteins were extracted using RIPA cell lysis buffer containing protease and phosphatase inhibitor cocktail. The protein concentration was assessed by using a BCA assay. Subsequently, equal amounts of these proteins were loaded onto an SDS-PAGE gel and transferred onto a PVDF membrane. The protein-loaded membrane was then blocked using a commercial blocking solution (Beyotime, China) and sequentially incubated with primary and secondary antibodies. Protein bands were visualized using an ECL chemiluminescence kit and quantified using ImageJ software.

Caspase 3 = test: Western blot, Caspase 3 in MCF-7 cells; type: cell-based; details: MCF-7, 48 h, dose-dependent
Description: as §2

E2F2 = test: Western blot, E2F2 in MCF-7 cells; type: cell-based; details: MCF-7, 48 h
Description: as §2

Sequence of BRD1 (O95696 whole entry): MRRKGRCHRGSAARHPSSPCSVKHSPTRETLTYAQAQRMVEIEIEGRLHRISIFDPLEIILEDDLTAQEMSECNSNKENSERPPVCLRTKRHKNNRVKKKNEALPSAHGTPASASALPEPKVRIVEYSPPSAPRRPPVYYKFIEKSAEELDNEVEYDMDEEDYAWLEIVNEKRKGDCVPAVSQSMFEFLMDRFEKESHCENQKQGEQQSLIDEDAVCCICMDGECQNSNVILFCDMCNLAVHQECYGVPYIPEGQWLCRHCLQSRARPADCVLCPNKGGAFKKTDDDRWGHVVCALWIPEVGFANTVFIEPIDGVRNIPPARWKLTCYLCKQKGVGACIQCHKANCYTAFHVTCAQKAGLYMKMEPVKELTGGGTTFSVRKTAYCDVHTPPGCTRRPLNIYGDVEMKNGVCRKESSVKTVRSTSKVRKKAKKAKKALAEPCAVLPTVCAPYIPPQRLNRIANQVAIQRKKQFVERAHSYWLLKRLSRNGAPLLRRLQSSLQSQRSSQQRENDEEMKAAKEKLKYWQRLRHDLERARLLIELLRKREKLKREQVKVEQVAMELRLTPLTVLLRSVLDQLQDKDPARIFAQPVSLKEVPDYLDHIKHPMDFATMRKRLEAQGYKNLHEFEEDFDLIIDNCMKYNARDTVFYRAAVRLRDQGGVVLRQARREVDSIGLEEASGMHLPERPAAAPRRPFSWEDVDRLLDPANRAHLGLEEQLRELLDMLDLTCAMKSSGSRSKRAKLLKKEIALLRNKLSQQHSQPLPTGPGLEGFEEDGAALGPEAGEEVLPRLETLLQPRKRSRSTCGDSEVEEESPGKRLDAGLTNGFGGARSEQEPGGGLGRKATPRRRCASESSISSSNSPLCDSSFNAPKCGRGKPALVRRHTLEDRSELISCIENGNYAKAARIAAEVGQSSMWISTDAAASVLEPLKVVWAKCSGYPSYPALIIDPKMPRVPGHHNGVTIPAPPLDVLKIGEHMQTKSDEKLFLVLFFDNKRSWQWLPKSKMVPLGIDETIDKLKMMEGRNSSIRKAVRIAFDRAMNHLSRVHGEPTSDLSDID

IC50 (BRD1): 55.6 ± 13.9 µM
IC50 (BRD2): 6.83 ± 2.2 µM
IC50 (BRD3): 4.79 ± 1.36 µM
IC50 (BRD4 BD1): 0.204 ± 0.068 µM
selectivity BRD4 BD1 over BRD4 BD2 (BRD4 BD1; IC50 BD1 vs BD2): four times more potent
IC50 (MDA-MB-231 cells): 2.2 µM
Compound: CCc1cc2cc(NS(=O)(=O)c3ccc(F)c(C)c3)ccc2[nH]c1=O [HF4, N-(3-ethyl-2-oxo-1,2-dihydroquinolin-6-yl)-4-fluoro-3-methylbenzenesulfonamide]
IC50 [1]: 21.5 ± 7.4 µM
colony formation (MCF-7 cells; 2 μM): marked decline in colony formation
colony formation (MCF-7 cells; 8 μM): nearly no visible colonies
Bcl-2 expression (Bcl-2): significantly downregulated
Caspase 3 expression (Caspase 3): significantly downregulated
E2F2 expression (E2F2): suppressed
